ChEMBL document CHEMBL3232934, “Synthesis of thio-heterocyclic analogues from Baylis-Hillman bromides as potent cyclooxygenase-2 inhibitors” (Bioorg Med Chem Lett, 2014)

What was measured:
[1] = target: T1, Prostaglandin G/H synthase 2 (Homo sapiens) (UniProt P35354); conditions: at 100 µM
T1 sequence (whole entry): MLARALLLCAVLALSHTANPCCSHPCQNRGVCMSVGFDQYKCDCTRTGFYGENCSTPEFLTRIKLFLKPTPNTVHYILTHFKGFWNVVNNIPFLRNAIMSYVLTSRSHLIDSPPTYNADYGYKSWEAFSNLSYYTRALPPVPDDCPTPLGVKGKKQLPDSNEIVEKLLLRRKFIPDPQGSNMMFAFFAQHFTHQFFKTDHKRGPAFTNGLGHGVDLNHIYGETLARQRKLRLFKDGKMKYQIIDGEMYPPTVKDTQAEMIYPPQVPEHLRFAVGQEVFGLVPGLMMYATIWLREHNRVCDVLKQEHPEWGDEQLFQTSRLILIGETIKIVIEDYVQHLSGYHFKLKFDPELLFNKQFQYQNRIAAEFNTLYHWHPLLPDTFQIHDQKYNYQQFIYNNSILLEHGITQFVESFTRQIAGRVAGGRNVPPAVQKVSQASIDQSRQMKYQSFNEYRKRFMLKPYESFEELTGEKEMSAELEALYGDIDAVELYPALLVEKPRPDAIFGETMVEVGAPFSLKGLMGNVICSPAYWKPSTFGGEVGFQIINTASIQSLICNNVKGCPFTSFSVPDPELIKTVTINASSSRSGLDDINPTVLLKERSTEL
Description: Inhibition of COX2 (unknown origin) at 100 uM by colorimetric method

[2] = target: Prostaglandin G/H synthase 1 (Homo sapiens) (UniProt P23219); conditions: at 100 µM;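 also: COX-1 enzyme inhibition, read out colorimetrically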
Prostaglandin G/H synthase 1 (Homo sapiens), sequence (P23219 whole entry): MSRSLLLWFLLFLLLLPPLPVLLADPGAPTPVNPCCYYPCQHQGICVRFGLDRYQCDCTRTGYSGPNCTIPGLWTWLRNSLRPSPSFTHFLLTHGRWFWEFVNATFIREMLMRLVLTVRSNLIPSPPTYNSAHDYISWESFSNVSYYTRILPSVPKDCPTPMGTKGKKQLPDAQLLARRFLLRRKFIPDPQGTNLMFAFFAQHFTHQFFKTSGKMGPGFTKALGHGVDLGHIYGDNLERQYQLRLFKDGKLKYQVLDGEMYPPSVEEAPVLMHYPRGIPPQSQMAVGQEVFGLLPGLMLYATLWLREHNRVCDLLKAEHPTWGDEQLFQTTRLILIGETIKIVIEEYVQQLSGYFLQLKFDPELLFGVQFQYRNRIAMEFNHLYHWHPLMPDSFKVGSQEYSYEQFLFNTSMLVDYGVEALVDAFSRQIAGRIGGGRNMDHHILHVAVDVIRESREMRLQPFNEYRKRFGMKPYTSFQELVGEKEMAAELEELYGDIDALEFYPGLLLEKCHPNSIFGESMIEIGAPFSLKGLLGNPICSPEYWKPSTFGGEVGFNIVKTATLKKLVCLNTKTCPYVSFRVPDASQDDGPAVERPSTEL
Description: Inhibition of COX1 (unknown origin) at 100 uM by colorimetric method

[3] = target: T2, Prostaglandin G/H synthase 2 (Homo sapiens, UniProt P35354); assay: Inhibition of COX2 (unknown origin) by colorimetric method
T2 sequence (P35354 whole entry): T1 sequence (whole entry)

Compound	inhibition [1] [%]	inhibition [2] [%]	IC50 [3] [µM]
COC(=O)/C(=C/c1ccc2ccccc2c1)CSc1nc2ccccc2s1	75.1	28.8	2.93
CCOC(=O)/C(=C/c1ccc(Br)cc1)CSc1nc(C)cc(C)n1	78.5	38.3	3.17
CCc1ccc(/C=C(\CSc2nncn2C)C(=O)OC)cc1	62.4	57.2	
CCOC(=O)/C(=C/c1ccc(CC)cc1)CSc1nc(C)cc(C)n1	76.5	55.1	
CCOC(=O)/C(=C/c1cccc(Cl)c1)CSc1nc(C)cc(C)n1	78.6	24.4	5.88
COC(=O)/C(=C/c1ccc(F)cc1)CSc1nc(C)cc(C)n1	71	50.7	
CCOC(=O)/C(=C/c1cccc(F)c1)CSc1nncn1C	78.6	20.8	3.88
COC(=O)/C(=C/c1ccc(Cl)cc1)CSc1nc(C)cc(C)n1	53.5	50.7	
COC(=O)/C(=C/c1ccc(OC)cc1)CSc1nc(C)cc(C)n1	80.2	65.3	
CCOC(=O)/C(=C/c1ccc(C(C)C)cc1)CSc1nc(C)cc(C)n1	77.4	44.1	
COC(=O)/C(=C/c1ccc2ccccc2c1)CSc1nc(C)cc(C)n1	73.5	46.3	

Next, values leading:

inhibition [1] [%]	inhibition [2] [%]	IC50 [3] [µM]	Compound
78.4	1	4.34	COC(=O)/C(=C/c1ccc2ccccc2c1)CSc1nc2ccccc2o1
77.5	51.4		COC(=O)/C(=C/c1ccc(C(F)(F)F)cc1)CSc1nc2ccccc2s1
81.9	39	2.95	COC(=O)/C(=C/c1ccc(C(F)(F)F)cc1)CSc1nc2ccccc2o1
81	47		CCOC(=O)/C(=C/c1ccc(C(C)C)cc1)CSc1nc2ccccc2o1
76.7	50		CCOC(=O)/C(=C/c1cccc(Cl)c1)CSc1nc2ccccc2o1
74.8	42.7		COC(=O)/C(=C/c1ccc(Cl)cc1)CSc1nc2ccccc2o1
72	47.8		COC(=O)/C(=C/c1ccc(F)cc1)CSc1nc2ccccc2o1
77.1	2	4.76	COC(=O)/C(=C/c1ccc(OC)cc1)CSc1nc2ccccc2o1
64.7	54.3		CCOC(=O)/C(=C/c1ccc(Br)cc1)CSc1nc2ccccc2o1
